Molecules are shown by their SMILES.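 Exposure lasted 48 hours, with cells grown in 96-well plates and compounds tested at five concentrations. The concentration for 50% growth inhibition is given as GI50. TGI marks complete inhibition of growth.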 Some results are limits rather than exact numbers.

Common to all, as to assay: growth of human tumour cells (NCI), 48 h
Assay [1] concerns MDA-MB-435.
Assay [2] has as its system NCI/ADR-RES ovarian.
Assay [3] deals with OVCAR-3 ovarian.
For assay [4], the system named is CCRF-CEM leukemia.
Assay [5] relates to SR leukemia.
In assay [6] the test system is SN12C renal.
In assay [7] the test system is SNB-19 CNS.
In assay [8] the test system is 786-0 renal.
Assay [9] deals with HOP-62 NSCLC.
For assay [10], the system named is LOX IMVI melanoma.
In assay [11] the test system is OVCAR-5 ovarian.
In assay [12] the test system is UACC-257 melanoma.

For `CCN(CC)C(=O)CCCCCCCCC1CO1` (stereo not drawn), the TGI in [1], in assay [2], in [3], in assay [4], in assay [5] and in assay [6] was greater than 100 µM throughout. Moreover, the TGI in assay [7], in [8], in [9], in assay [10], in assay [11] and in assay [12] was greater than 100 µM in each case.

`CCCCCc1c(CCCC)c(=O)[nH]c2cc(CNCC(OC)OC)ccc12`: the TGI in assay [1] came out at 24 µM; in [2], 26.9 µM; in assay [3] it was 32.3 µM; in assay [4], 19.2 µM; in assay [5], 17.3 µM; in [6], 28.1 µM. The TGI in [7] was determined as 26.2 µM; in assay [8], 18.1 µM; in assay [9], 33.5 µM; in assay [10] it was 18.8 µM; in assay [11], 28 µM; in assay [12], 16.2 µM.

Regarding `c1ccc(N=NNNc2ccc(-c3nc4ccccc4[nH]3)cc2)cc1`, the TGI in assay [1] was greater than 100 µM; in [2] it was 75.1 µM; in assay [3] it was 38.1 µM; in assay [4], 56.1 µM; in [5], greater than 100 µM; in assay [6] it was 98.1 µM. Moreover, the TGI in [7], in assay [8], in assay [9], in [10], in assay [11] and in assay [12] was greater than 100 µM throughout.

Regarding `CN(C)CCCOC(=O)C(O)(Cc1ccccc1)C1CC1` (stereo not drawn), the TGI in [1], in [2], in assay [3], in assay [4], in [5] and in [6] was greater than 100 µM in each case. For the same molecule, the TGI in [7], in assay [8], in [9], in [10], in assay [11] and in assay [12] was greater than 100 µM in each case.

`NS(=O)(=O)c1ccc(/C=C/c2cccc(O)c2)cc1`: the GI50 in [1] was 25.8 µM; in assay [4], 16.1 µM; in assay [5] it was 17.8 µM; in assay [10], 43 µM. Also, the TGI in [1] was greater than 100 µM; in assay [2], greater than 100 µM; in [3] it was 80.4 µM; in assay [4] it was greater than 100 µM; in assay [5], greater than 100 µM; in assay [6], greater than 100 µM. Further, the TGI in assay [7], in [8], in [9], in [10], in assay [11] and in assay [12] was greater than 100 µM each time.

On to `COc1ccc(-c2cn3c(n2)sc2cc(C)ccc23)cc1`, for which the TGI in assay [1] is 63.2 µM; in [2], greater than 100 µM; in assay [3] it was greater than 100 µM; in [4], greater than 100 µM; in [5], greater than 100 µM; in assay [6], 88.7 µM. Besides, the TGI in [7] is greater than 100 µM; in assay [8] it was 59.8 µM; in assay [9], 81.3 µM; in assay [10], greater than 100 µM; in assay [11], greater than 100 µM; in assay [12], 24.2 µM.

As to `CC(=O)Oc1ccc2c(c1)CC[C@@H]1C2[C@@H](O[N+](=O)[O-])C[C@@]2(C)C1CC[C@@H]2O` (stereo partly drawn), the TGI in assay [1] was 56.2 µM; in assay [2], 97.3 µM; in [3] it was greater than 86.9 µM; in [4], greater than 83.2 µM; in [5], greater than 88.1 µM; in assay [6] it was greater than 100 µM. The TGI in assay [7] was greater than 100 µM; in assay [8], greater than 100 µM; in [9], greater than 60.5 µM; in assay [10], greater than 81.2 µM; in assay [11] it was greater than 71.8 µM; in [12], greater than 100 µM.

As to `COc1cc2[nH]c(-c3ccccc3)cc(=O)c2cc1OC`, the TGI in assay [1] was 12.2 µM; in [2], greater than 100 µM; in assay [3], greater than 100 µM; in [4] it was greater than 65.6 µM; in assay [5] it was greater than 48.3 µM; in [6] it was greater than 100 µM. For the same molecule, the TGI in assay [7], in assay [8], in assay [9], in [10], in assay [11] and in assay [12] was greater than 100 µM throughout.

On to `NC1CCC(c2cc3ccccc3s2)(N2CCCCC2)CC1` (stereo not drawn), for which the TGI stood at 2.63 µM in [1]; 2.42 µM in [2]; 2.81 µM in assay [3]; 2.45 µM in assay [4]; 3.38 µM in assay [5]; 3.1 µM in [6]. In addition, the TGI turned out to be 26.8 µM in assay [7]; 2.83 µM in assay [8]; 4.5 µM in [9]; 2.84 µM in [10]; 6.23 µM in assay [11]; 3.44 µM in assay [12].

Consider `Clc1ccc(-c2nc(-c3ccc(Cl)cc3)[s+]s2)cc1`, for which the TGI is greater than 100 µM in assay [1]; greater than 100 µM in assay [2]; greater than 100 µM in assay [3]; 98.6 µM in assay [4]; 94.2 µM in assay [5]; greater than 100 µM in [6]. Also, the TGI in assay [7], in [8], in assay [9], in [10], in assay [11] and in [12] was greater than 100 µM throughout.

For `O=C1CC(c2cccc(Cl)c2)n2cccc21` (stereo not drawn), the TGI in [1], in [2], in assay [3], in assay [4], in assay [5] and in assay [6] was greater than 100 µM in each case. The TGI in assay [7], in [8], in assay [9], in [10], in assay [11] and in [12] was greater than 100 µM in each case.

Turning to `COc1cc2c(cc1OCCCC(=O)Nc1cc(C(=O)Nc3cc(C(=O)NCCCN(C)C)n(C)n3)n(C)n1)N=CC1CCCN1C2=O` (stereo not drawn), the TGI in assay [1] stood at 39 µM; in [2] it was 57.3 µM; in assay [3], 33 µM; in assay [4], 29.7 µM; in assay [5], 26.7 µM; in [6], 30.1 µM. In addition, the TGI was found to be 34.2 µM in [7]; 35.5 µM in assay [8]; 68.7 µM in [9]; 57 µM in assay [10]; 37.7 µM in assay [11]; 35.2 µM in [12].

Consider `CC1CC[C@]2(C(=O)O)CCC3(C)C(=C2[C@H]1C)C=CC1[C@@]2(C)CC[C@H](O)C(C)(C)C2CC[C@]13C` (stereo partly drawn), for which the TGI in assay [1] is greater than 100 µM; in assay [2], greater than 100 µM; in [3], 73.1 µM; in assay [4] it was greater than 100 µM; in assay [5], 66.1 µM; in [6] it was greater than 100 µM. Besides, the TGI in assay [7] is greater than 100 µM; in assay [8] it was greater than 100 µM; in [9] it was 74.8 µM; in [10], greater than 100 µM; in [11] it was greater than 100 µM; in [12] it was greater than 100 µM.

Take `COC1CCC(OC2CC(C3(C)CCC4(CC(O)C(C)C(C(C)/C=C(\C)C(=O)C(C)CC(C)C(=O)O)O4)O3)OC3(OC(C4OC(O)(CO)C(C)CC4C)CC3C)C2C)OC1C` (stereo not drawn): the TGI is 0.564 µM in assay [1]; 6.65 µM in assay [2]; 2.58 µM in assay [3]; 0.509 µM in assay [4]; less than 0.0134 µM in assay [5]; 1.55 µM in assay [6]. For the same molecule, the TGI was found to be 0.355 µM in [7]; 1.21 µM in [8]; 2.87 µM in [9]; 0.941 µM in [10]; 13.1 µM in assay [11]; 1.52 µM in assay [12].

On to `COC(=O)CC1C2CC3C(C2=O)C13` (stereo not drawn), for which the TGI in assay [1], in assay [2], in assay [3], in [4], in assay [5] and in [6] was greater than 100 µM in each case. In addition, the TGI in assay [7], in [8], in assay [9], in assay [10], in assay [11] and in assay [12] was greater than 100 µM each time.

For `CCCCCCCCOCC1S(=O)(=O)OCCOS1(=O)=O`, the TGI in assay [1], in assay [2], in assay [3], in assay [4], in assay [5] and in [6] was greater than 100 µM in each case. The TGI in assay [7], in [8], in assay [9], in assay [10], in assay [11] and in assay [12] was greater than 100 µM throughout.

Take `CC1=Nn2c(nc3sc4c(c3c2=O)CCCC4)SC1`: the TGI is greater than 100 µM in assay [1]; greater than 100 µM in assay [2]; greater than 100 µM in assay [3]; greater than 76.3 µM in assay [4]; greater than 100 µM in assay [5]; greater than 100 µM in [6]. For the same molecule, the TGI in assay [7] was greater than 100 µM; in [8], greater than 100 µM; in [9], greater than 100 µM; in assay [10], 53.7 µM; in [11], greater than 100 µM; in assay [12], greater than 100 µM.

For the molecule `CC(=O)Nc1ccc(Nc2nc(=O)[nH]c(=O)[nH]2)cc1`, the TGI in [1], in [2], in [3], in assay [4], in assay [5] and in [6] was greater than 100 µM each time. The TGI in assay [7], in assay [8], in [9], in assay [10], in assay [11] and in [12] was greater than 100 µM throughout.

Turning to `COc1cc(C2c3cc4c(cc3OC(N3CCOCC3)C2C)OCO4)cc(OC)c1O` (stereo not drawn), the TGI is 6.27 µM in assay [1]; 18.4 µM in assay [2]; greater than 34 µM in [3]; greater than 100 µM in assay [4]; greater than 35.1 µM in [5]; 54.3 µM in [6]. Further, the TGI in assay [7] is greater than 75.1 µM; in assay [8], greater than 50.4 µM; in assay [9], 35.5 µM; in assay [10], greater than 100 µM; in [11] it was greater than 100 µM; in assay [12], greater than 100 µM.

In the case of `C=C(Br)CN(C#N)CC(=C)Br`, the TGI in assay [1], in assay [2], in [3], in [4], in [5] and in assay [6] was greater than 100 µM throughout. Also, the TGI in assay [7], in assay [8], in assay [9], in assay [10], in [11] and in assay [12] was greater than 100 µM throughout.

Consider `COC(=O)C(Cc1ccccc1)NC(=O)CNC(=O)CSc1nnc(COc2ccc(Cl)cc2)n1-c1ccccc1` (stereo not drawn), for which the TGI in [1] was 35 µM; in [2], 42 µM; in [3], 30.9 µM; in assay [4], 7.42 µM; in assay [5] it was greater than 20.4 µM; in assay [6], 32.5 µM. Moreover, the TGI came to 31.4 µM in [7]; 30.5 µM in assay [8]; 35.3 µM in assay [9]; 13.8 µM in assay [10]; 33.6 µM in [11]; 28.8 µM in assay [12].

Consider `COc1cccc(C2c3cc4c(cc3OC(N3CCOCC3)C2C)OCO4)c1O` (stereo not drawn), for which the TGI in assay [1] worked out at 6.57 µM; in assay [2], 19.1 µM; in [3] it was 30.8 µM; in assay [4], 35.3 µM; in assay [5] it was 30.2 µM; in assay [6], 60.5 µM. For the same molecule, the TGI was 36.4 µM in [7]; 53.6 µM in [8]; 26 µM in [9]; 25 µM in [10]; 60 µM in assay [11]; greater than 83.3 µM in [12].
